Measured values reported in US20230117034A1, “PYRAZOLOTRIAZINES” (Bayer Aktiengesellschaft, priority 2019, published 2023).

Experiments:
[1] = target: T1, CDK2/CycE (Homo sapiens, UniProt P24941); assay: CDK2/CycE kinase assay (TR-FRET, 2 mM ATP); format: biochemical; settings: 2 mM ATP (high ATP); median; read-out: CDK2/CyclinE, 2 mM ATP (high ATP), IC50 (median)
T1 construct: purchased ProQinase GmbH (Freiburg, Germany); host or cells: insect cells (Sf9)
Procedure, shortened: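 Biotin-peptide phosphorylation (0.75 µM substrate, 2 mM ATP final, 25 min, 22 °C) by Sf9-expressed GST-CDK2/GST-CycE, after a 15-min compound pre-binding step. Inhibition scaled between enzyme-free (100%) and uninhibited (0%) wells.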

[2] = target: T2, CDK9/CycT1 (Homo sapiens, UniProt P50750); assay: CDK9/CycT1 high ATP kinase assay (TR-FRET, 2 mM ATP); format: biochemical; settings: 2 mM ATP (high ATP); median; read-out: CDK9/CyclinT1, 2 mM ATP (high ATP), IC50 (median)
T2 construct: Recombinant full-length His-tagged human CDK9 and CycT1; purchased Life Technologies PV4131; host or cells: insect cells
T2 sequence (P50750 whole entry): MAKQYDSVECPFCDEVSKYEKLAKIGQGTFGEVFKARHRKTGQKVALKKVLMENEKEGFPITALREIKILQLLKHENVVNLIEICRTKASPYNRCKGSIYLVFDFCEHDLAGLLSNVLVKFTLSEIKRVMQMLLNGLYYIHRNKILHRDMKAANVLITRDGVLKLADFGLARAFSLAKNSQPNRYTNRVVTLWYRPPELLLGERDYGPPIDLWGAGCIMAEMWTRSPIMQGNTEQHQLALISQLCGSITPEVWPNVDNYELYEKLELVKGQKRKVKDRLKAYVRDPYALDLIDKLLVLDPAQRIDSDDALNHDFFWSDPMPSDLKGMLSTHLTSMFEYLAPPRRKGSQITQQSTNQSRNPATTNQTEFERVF
T2 sequence (O60563 whole entry partner): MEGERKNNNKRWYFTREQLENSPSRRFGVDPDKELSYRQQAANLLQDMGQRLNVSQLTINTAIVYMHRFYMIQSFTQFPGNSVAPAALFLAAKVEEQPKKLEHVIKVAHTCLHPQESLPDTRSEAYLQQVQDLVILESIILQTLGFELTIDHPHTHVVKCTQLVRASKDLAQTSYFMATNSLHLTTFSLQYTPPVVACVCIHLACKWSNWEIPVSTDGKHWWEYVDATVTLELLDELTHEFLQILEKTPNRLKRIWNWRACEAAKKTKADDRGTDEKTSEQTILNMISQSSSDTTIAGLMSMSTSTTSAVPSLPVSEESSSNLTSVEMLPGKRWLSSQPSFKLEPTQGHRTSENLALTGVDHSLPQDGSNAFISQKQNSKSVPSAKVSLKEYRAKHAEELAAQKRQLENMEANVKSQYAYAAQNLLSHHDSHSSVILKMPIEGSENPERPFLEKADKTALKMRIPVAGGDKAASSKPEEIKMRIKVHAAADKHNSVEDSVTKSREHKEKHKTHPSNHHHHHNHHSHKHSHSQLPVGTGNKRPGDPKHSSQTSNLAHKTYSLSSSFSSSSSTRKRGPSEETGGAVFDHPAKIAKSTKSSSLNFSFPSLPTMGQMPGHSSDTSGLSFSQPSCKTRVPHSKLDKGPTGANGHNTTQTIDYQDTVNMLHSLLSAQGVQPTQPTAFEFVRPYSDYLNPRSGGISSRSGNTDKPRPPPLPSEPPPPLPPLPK
Procedure, shortened: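 Full-length His-tagged human CDK9/CycT1 (insect cell, ~0.5 μg/mL) preincubated 15 min at 22 °C with compound in Tris pH 8.0, MgCl2, DTT buffer before reaction with biotinylated peptide substrate at high ATP (2 mM).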

[3] = target: T3, CDK12 (nuclear staining in CAL-120 cells) (Homo sapiens, UniProt Q9NYV4); assay: CDK12 nuclear protein level: immunofluorescence/high content analysis (CAL-120); format: cell-based; settings: for DC50: CAL-120 cells, 24 h, immunofluorescence, 50% reduction of nuclear CDK12 staining intensity, median, read-out: CDK12 degradation IF, DC50- [mol/l] (median); for (IC50 CDK12 high ATP) to (Degradation DC50 CDK12) ratio: ratio of IC50 CDK12 high ATP kinase assay to DC50 CDK12 degradation (IF, CAL-120)
T3 construct: endogenous in cells; host or cells: CAL-120 human breast cancer cells (DSMZ ACC 459)
T3 sequence (Q9NYV4 whole entry): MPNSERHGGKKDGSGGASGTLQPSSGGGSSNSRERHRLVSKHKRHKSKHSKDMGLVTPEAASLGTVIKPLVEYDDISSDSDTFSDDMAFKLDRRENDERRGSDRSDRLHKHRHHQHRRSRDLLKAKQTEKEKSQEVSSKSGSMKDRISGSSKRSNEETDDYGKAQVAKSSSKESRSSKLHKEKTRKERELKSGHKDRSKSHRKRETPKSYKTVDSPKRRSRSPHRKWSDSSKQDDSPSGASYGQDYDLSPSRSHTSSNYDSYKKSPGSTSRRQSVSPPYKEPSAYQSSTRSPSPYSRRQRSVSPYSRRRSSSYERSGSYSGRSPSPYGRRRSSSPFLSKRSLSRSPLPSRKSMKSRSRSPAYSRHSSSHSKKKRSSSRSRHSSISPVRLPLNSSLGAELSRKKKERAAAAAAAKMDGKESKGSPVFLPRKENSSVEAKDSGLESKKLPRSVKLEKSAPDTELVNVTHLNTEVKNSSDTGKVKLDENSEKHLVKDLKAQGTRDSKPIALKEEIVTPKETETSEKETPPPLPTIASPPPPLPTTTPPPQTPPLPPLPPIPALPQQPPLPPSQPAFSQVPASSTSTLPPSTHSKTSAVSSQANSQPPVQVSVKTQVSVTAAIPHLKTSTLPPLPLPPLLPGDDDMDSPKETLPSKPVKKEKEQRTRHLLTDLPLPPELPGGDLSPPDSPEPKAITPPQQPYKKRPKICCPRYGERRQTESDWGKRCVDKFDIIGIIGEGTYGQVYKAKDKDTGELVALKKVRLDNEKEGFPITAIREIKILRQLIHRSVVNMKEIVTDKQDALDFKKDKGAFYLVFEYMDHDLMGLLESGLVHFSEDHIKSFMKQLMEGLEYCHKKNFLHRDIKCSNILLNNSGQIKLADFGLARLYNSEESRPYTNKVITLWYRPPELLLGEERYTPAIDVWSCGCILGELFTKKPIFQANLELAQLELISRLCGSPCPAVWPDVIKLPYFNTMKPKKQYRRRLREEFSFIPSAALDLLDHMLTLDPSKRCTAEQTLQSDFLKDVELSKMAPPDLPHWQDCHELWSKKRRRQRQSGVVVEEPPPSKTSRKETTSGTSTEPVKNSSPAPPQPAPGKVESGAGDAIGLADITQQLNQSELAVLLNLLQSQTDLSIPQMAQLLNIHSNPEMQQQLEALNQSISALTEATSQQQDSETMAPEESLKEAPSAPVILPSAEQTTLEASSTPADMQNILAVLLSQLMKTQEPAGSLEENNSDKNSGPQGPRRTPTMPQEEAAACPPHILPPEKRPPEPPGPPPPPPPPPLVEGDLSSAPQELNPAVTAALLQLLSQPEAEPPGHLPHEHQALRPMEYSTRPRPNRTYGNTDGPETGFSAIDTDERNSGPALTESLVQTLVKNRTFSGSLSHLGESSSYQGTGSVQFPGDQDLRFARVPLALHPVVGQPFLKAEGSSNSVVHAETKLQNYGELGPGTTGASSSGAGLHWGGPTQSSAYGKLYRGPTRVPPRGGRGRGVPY
T3 sequence (O75909 whole entry partner): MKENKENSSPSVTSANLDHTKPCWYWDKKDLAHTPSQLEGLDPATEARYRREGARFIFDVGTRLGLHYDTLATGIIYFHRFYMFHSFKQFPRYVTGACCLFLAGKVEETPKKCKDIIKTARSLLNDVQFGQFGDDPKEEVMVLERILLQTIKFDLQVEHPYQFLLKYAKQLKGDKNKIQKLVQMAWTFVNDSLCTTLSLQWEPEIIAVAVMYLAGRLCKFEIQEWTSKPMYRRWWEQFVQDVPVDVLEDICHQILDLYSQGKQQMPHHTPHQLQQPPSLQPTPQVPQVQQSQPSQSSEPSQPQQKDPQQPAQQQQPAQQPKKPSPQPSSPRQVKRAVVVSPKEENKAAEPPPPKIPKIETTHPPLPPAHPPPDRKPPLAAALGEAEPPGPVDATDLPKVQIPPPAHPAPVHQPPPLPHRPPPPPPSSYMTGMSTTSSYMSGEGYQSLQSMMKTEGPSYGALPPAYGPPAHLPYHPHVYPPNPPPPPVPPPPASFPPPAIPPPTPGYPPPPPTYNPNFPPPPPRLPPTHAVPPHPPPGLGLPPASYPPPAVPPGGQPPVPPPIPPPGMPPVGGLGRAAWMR
Procedure, shortened: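 DC50 is the degrader concentration that halves nuclear CDK12 immunofluorescence relative to controls, measured by high-content imaging. CAL-120 cells were exposed to compound for 24 h at 37 °C before PFA fixation, and signal was normalized to DMSO and control wells.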

IC50 [1] [µM] | IC50 [2] [µM] | DC50 [3] [µM] | (IC50 CDK12 high ATP) to (Degradation DC50 CDK12) ratio [3] | Compound
12.4 | 7.13 | 0.00433 | 483 | CN(CC(C)(C)O)c1nc(NCc2nc3c(F)c(F)ccc3[nH]2)n2ncc(Cl)c2n1 [Example 359, 1-[(8-chloro-4-{[(4,5-difluoro-1H-benzimidazol-2-yl)methyl]amino}pyrazolo[1,5-a][1,3,5]triazin-2-yl)(methyl)amino]-2-methylpropan-2-ol]
7.28 | > 20 | 0.0257 | 115 | CC(C)c1cnn2c(NCc3ncc(-c4ccccc4)[nH]3)nc(N3CCOCC3)nc12 [Example 30, 2-(morpholin-4-yl)-N-[(5-phenyl-1H-imidazol-2-yl)methyl]-8-(propan-2-yl)pyrazolo[1,5-a][1,3,5]triazin-4-amine]
2.07 | > 20 | 0.00381 | 1751 | CN(c1nc(NCc2nc3ccccc3[nH]2)n2ncc(Br)c2n1)[C@H]1C[C@@H](O)C1 [Example 364, cis-3-[(4-{[(1H-benzimidazol-2-yl)methyl]amino}-8-bromopyrazolo[1,5-a][1,3,5]triazin-2-yl)(methyl)amino]cyclobutan-1-ol]
3.95 | > 20 | 0.00579 | 859 | Brc1cnn2c(NCc3nc4ccccc4[nH]3)nc(N3C[C@H]4CC[C@@H]3CO4)nc12 (single isomer, unassigned) [Example 383, N-[(1H-benzimidazol-2-yl)methyl]-8-bromo-2-{[1R or S-(1R*,4R*)]-2-oxa-5-azabicyclo[2.2.2]octan-5-yl}pyrazolo[1,5-a][1,3,5]triazin-4-amine]
0.573 | 17.6 | 0.0127 | 231 | CC[C@@H](CO)Nc1nc(NCc2nc3ccccc3[nH]2)n2ncc(Br)c2n1 [Example 367, (2S)-2-[(4-{[(1H-benzimidazol-2-yl)methyl]amino}-8-bromopyrazolo[1,5-a][1,3,5]triazin-2-yl)amino]butan-1-ol]
> 20 | > 20 | 0.0335 | >597 | CN1CCC(Oc2nc(NCc3nc4ccccc4[nH]3)n3ncc(Br)c3n2)CC1 [Example 389, N-[(1H-benzimidazol-2-yl)methyl]-8-bromo-2-[(1-methylpiperidin-4-yl)oxy]pyrazolo[1,5-a][1,3,5]triazin-4-amine]
1 | 7.3 | 0.00623 | 67 | Cc1cc2nc(CNc3nc(N(C)CC(C)(C)O)nc4c(C5CC5)cnn34)[nH]c2cc1C [Example 321, 1-[(8-cyclopropyl-4-{[(5,6-dimethyl-1H-benzimidazol-2-yl)methyl]amino}pyrazolo[1,5-a][1,3,5]triazin-2-yl)(methyl)amino]-2-methylpropan-2-ol]
9.31 | > 20 | 0.00785 | 1673 | CN1CCN(c2nc(NCc3nc4c(F)cccc4[nH]3)n3ncc(Cl)c3n2)CC1.O=CO [Example 362, formic acid 8-chloro-N-[(4-fluoro-1H-benzimidazol-2-yl)methyl]-2-(4-methylpiperazin-1-yl)pyrazolo[1,5-a][1,3,5]triazin-4-amine]
4.91 | > 20 | 0.00698 | 960 | Brc1cnn2c(NCc3nc4ccccc4[nH]3)nc(N3C[C@H]4CC[C@@H]3CO4)nc12 (single isomer, unassigned; enantiomer 2) [Example 391, N-[(1H-benzimidazol-2-yl)methyl]-8-bromo-2-{[1R or S-(1R*,4R*)]-2-oxa-5-azabicyclo[2.2.2]octan-5-yl}pyrazolo[1,5-a][1,3,5]triazin-4-amine (Enantiomer 2)]
17.1 | 14.7 | 0.128 | 27 | Cc1[nH]c(CNc2nc(N3CCOCC3)nc3c(Br)cnn23)nc1-c1ccccc1 [Example 27, 8-bromo-N-[(5-methyl-4-phenyl-1H-imidazol-2-yl)methyl]-2-(morpholin-4-yl)pyrazolo[1,5-a][1,3,5]triazin-4-amine]
6.02 | > 20 | 0.0065 | 511 | Cc1ccnc2[nH]c(CNc3nc(N4CCOCC4)nc4c(C(C)C)cnn34)nc12 [Example 28, N-[(7-methyl-3H-imidazo[4,5-b]pyridin-2-yl)methyl]-2-(morpholin-4-yl)-8-(propan-2-yl)pyrazolo[1,5-a][1,3,5]triazin-4-amine]
15.6 | > 20 | 0.00721 | 2565 | Cc1ccnc2[nH]c(CNc3nc(N4CCN(C)CC4)nc4c(C(C)C)cnn34)nc12 [Example 32, N-[(7-methyl-3H-imidazo[4,5-b]pyridin-2-yl)methyl]-2-(4-methylpiperazin-1-yl)-8-(propan-2-yl)pyrazolo[1,5-a][1,3,5]triazin-4-amine]
1.16 | 12.6 | 0.0078 | 79 | Cc1cc2nc(CNc3nc(N4CCOCC4)nc4c(Br)cnn34)[nH]c2cc1C [Example 340, 8-bromo-N-[(5,6-dimethyl-1H-benzimidazol-2-yl)methyl]-2-(morpholin-4-yl)pyrazolo[1,5-a][1,3,5]triazin-4-amine]
3.39 | > 20 | 0.00655 | 1190 | Brc1cnn2c(NCc3nc4ccccc4[nH]3)nc(N3CCN4CCC3C4)nc12 (centres unmarked) [Example 350, N-[(1H-benzimidazol-2-yl)methyl]-8-bromo-2-(1,4-diazabicyclo[3.2.1]octan-4-yl)pyrazolo[1,5-a][1,3,5]triazin-4-amine]
1.81 | 1.29 | 0.00913 | 31 | Fc1cccc(-c2nnc(CNc3nc(N4CCOCC4)nc4c(C(F)(F)F)cnn34)[nH]2)c1 [Example 385, N-{[5-(3-fluorophenyl)-4H-1,2,4-triazol-3-yl]methyl}-2-(morpholin-4-yl)-8-(trifluoromethyl)pyrazolo[1,5-a][1,3,5]triazin-4-amine]

Compound | IC50 [1] [µM] | IC50 [2] [µM] | DC50 [3] [µM] | (IC50 CDK12 high ATP) to (Degradation DC50 CDK12) ratio [3]
CN1C2CCC1CN(c1nc(NCc3nc4c(F)c(F)ccc4[nH]3)n3ncc(C(F)(F)F)c3n1)C2 [Example 356, N-[(4,5-difluoro-1H-benzimidazol-2-yl)methyl]-2-(8-methyl-3,8-diazabicyclo[3.2.1]octan-3-yl)-8-(trifluoromethyl)pyrazolo[1,5-a][1,3,5]triazin-4-amine] | > 20 | > 20 | 0.00668 | 734
FC(F)(F)c1ccc2[nH]c(CNc3nc(N4CC5CCC(C4)N5)nc4c(C5CC5)cnn34)nc2c1 [Example 327, 8-cyclopropyl-2-(3,8-diazabicyclo[3.2.1]octan-3-yl)-N-{[5-(trifluoromethyl)-1H-benzimidazol-2-yl]methyl}pyrazolo[1,5-a][1,3,5]triazin-4-amine] | > 18.7 | > 20 | 0.01 | 235
Fc1cc2nc(CNc3nc(N4CC5CCC(C4)N5)nc4c(C5CC5)cnn34)[nH]c2cc1F [Example 325, 8-cyclopropyl-2-(3,8-diazabicyclo[3.2.1]octan-3-yl)-N-[(5,6-difluoro-1H-benzimidazol-2-yl)methyl]pyrazolo[1,5-a][1,5]triazin-4-amine] | > 20 | > 20 | 0.00188 | 1890
Brc1cnn2c(NCc3nc4ccccc4[nH]3)nc(N3C[C@H]4CC[C@@H]3CN4)nc12 (single isomer, unassigned) [Example 335, N-[(1H-benzimidazol-2-yl)methyl]-8-bromo-2-{[1R or S-(1R*,4R*)]-2,5-diazabicyclo[2.2.2]octan-2-yl}pyrazolo[1,5-a][1,3,5]triazin-4-amine] | 2.8 | > 20 | 0.00834 | 798
Fc1cc2nc(CNc3nc(N4CC5CCC(C4)N5)nc4c(Br)cnn34)[nH]c2cc1F [Example 355, 8-bromo-2-(3,8-diazabicyclo[3.2.1]octan-3-yl)-N-[(5,6-difluoro-1H-benzimidazol-2-yl)methyl]pyrazolo[1,5-a][1,3,5]triazin-4-amine] | > 18.6 | > 20 | 0.0235 | 178
